Consider 2 compounds from ChEMBL document CHEMBL3045501, “Anti-inflammatory activity of 2,5-dihydroxycyclohepta-2,4,6-trienone in rats” (Med Chem Res, 2010).

Usually LD50 stands for the dose expected to kill half of the subjects tested.

For data set [1], the system named is Rattus norvegicus. Description: Anti-inflammatory activity in Rattus norvegicus Wistar albino (rat) assessed as inhibition of carrageenan-induced paw edema at 14.48 X 10^2 umol/kg, po administered 1 hr prior to carrageenan challenge through oral gavage measured measured 1 hr after carrageenan treatment by plethysmometer. In kind it is functional.
Data set [2] relates to Rattus norvegicus. Description: Anti-inflammatory activity in Rattus norvegicus Wistar albino (rat) assessed as inhibition of carrageenan-induced paw edema at 14.48 X 10^2 umol/kg, po administered 1 hr prior to carrageenan challenge through oral gavage measured measured 2 hr after carrageenan treatment by plethysmometer. In kind it is functional. On the technique in general: Carrageenan injected into the paw causes an acute inflammation.

The test system of data set [3] is Rattus norvegicus. Description: Anti-inflammatory activity in Rattus norvegicus Wistar albino (rat) assessed as inhibition of carrageenan-induced paw edema at 7.24 X 10^2 umol/kg, po administered 1 hr prior to carrageenan challenge through oral gavage measured measured 3 hr after carrageenan treatment by plethysmometer. In kind it is functional.
Data set [4] concerns Rattus norvegicus. The data set is described as follows: Anti-inflammatory activity in Rattus norvegicus Wistar albino (rat) assessed as inhibition of carrageenan-induced paw edema at 7.24 X 10^2 umol/kg, po administered 1 hr prior to carrageenan challenge through oral gavage measured measured 1 hr after carrageenan treatment by plethysmometer. In kind it is functional.
In data set [5] the test system is Rattus norvegicus. Description: Toxicity in Rattus norvegicus Wistar albino (rat) assessed as mortality at 18.1 to 54.3 X 10^2 umol/kg, po. Conditions: in vivo. It is filed as organism-based.
Data set [6] has as its system Rattus norvegicus. The data set is described as follows: Anti-inflammatory activity in Rattus norvegicus Wistar albino (rat) assessed as inhibition of carrageenan-induced paw edema at 7.24 X 10^2 umol/kg, po administered 1 hr prior to carrageenan challenge through oral gavage measured measured 2 hr after carrageenan treatment by plethysmometer. It is filed as functional.

Data set [7] deals with Rattus norvegicus. The data set is described as follows: Anti-inflammatory activity in Rattus norvegicus Wistar albino (rat) assessed as inhibition of carrageenan-induced paw edema at 14.48 X 10^2 umol/kg, po administered 1 hr prior to carrageenan challenge through oral gavage measured measured 3 hr after carrageenan treatment by plethysmometer. In kind it is functional.
Data set [8] deals with Rattus norvegicus. Description: Toxicity in Rattus norvegicus Wistar albino (rat) assessed as drinking frequency at 18.1 to 36.2 X 10^2 umol/kg, po. It is filed as organism-based. Conditions: in vivo.
Data set [9] relates to Rattus norvegicus. The data set is described as follows: Toxicity in Rattus norvegicus Wistar albino (rat) assessed as mortality at 65.16 to 68.78 X 10^2 umol/kg, po measured after 12 hr. It is filed as organism-based. Conditions: in vivo.
Data set [10] has as its system Rattus norvegicus. The data set is described as follows: Anti-inflammatory activity in Rattus norvegicus Wistar albino (rat) assessed as inhibition of carrageenan-induced paw edema at 3.62 X 10^2 umol/kg, po administered 1 hr prior to carrageenan challenge through oral gavage measured 2 hr after carrageenan treatment by plethysmometer. In kind it is functional.
For data set [11], the system named is Rattus norvegicus. The data set is described as follows: Toxicity in Rattus norvegicus Wistar albino (rat) assessed as lethargy at 18.1 to 36.2 X 10^2 umol/kg, po. It is filed as organism-based. Conditions: in vivo.
Data set [12] relates to Oryctolagus cuniculus. Description: Inhibition of hyaluronidase-induced capillary permeability in albino Oryctolagus cuniculus (rabbit) assessed as area of subcutaneous spreading of trypan blue at 3.62 x 10^2 umol/kg, po pretreated 1 hr prior to mixture of hyaluronidase and trypan blue challenge measured after 5 min (reference value: 288.5 mm'2). It is filed as functional.

The test system of data set [13] is Rattus norvegicus. The data set is described as follows: Toxicity in Rattus norvegicus Wistar albino (rat) assessed as lethargy at 54.3 X 10^2 umol/kg, po. It is filed as organism-based. Particulars: in vivo.
The nature of data set [14]: Toxicity in po dosed Rattus norvegicus Wistar albino (rat) assessed as mortality. It is filed as organism-based. Particulars: in vivo.
In data set [15] the test system is Oryctolagus cuniculus. Description: Inhibition of hyaluronidase-induced capillary permeability in albino Oryctolagus cuniculus (rabbit) assessed as area of subcutaneous spreading of trypan blue at 7.24 x 10^2 umol/kg, po pretreated 1 hr prior to mixture of hyaluronidase and trypan blue challenge measured after 30 min (reference value: 498.8 mm'2). It is filed as functional.

A short description of data set [16]: Toxicity in Rattus norvegicus Wistar albino (rat) assessed as mortality at 61.54 X 10^2 umol/kg, po. In kind it is organism-based. Conditions: in vivo, read-out: Activity.
Data set [17] has as its system Rattus norvegicus. The data set is described as follows: Anti-inflammatory activity in Rattus norvegicus Wistar albino (rat) assessed as inhibition of carrageenan-induced paw edema at 3.62 X 10^2 umol/kg, po administered 1 hr prior to carrageenan challenge through oral gavage measured 3 hr after carrageenan treatment by plethysmometer. It is filed as functional.
The test system of data set [18] is Rattus norvegicus. The data set is described as follows: Anti-inflammatory activity in Rattus norvegicus Wistar albino (rat) assessed as inhibition of carrageenan-induced paw edema at 3.62 X 10^2 umol/kg, po administered 1 hr prior to carrageenan challenge through oral gavage measured 4 hr after carrageenan treatment by plethysmometer. It is filed as functional.

Data set [19] relates to Rattus norvegicus. The data set is described as follows: Anti-inflammatory activity in Rattus norvegicus Wistar albino (rat) assessed as inhibition of carrageenan-induced paw edema at 7.24 X 10^2 umol/kg, po administered 1 hr prior to carrageenan challenge through oral gavage measured measured 4 hr after carrageenan treatment by plethysmometer. It is filed as functional.

For data set [20], the system named is Oryctolagus cuniculus. The data set is described as follows: Inhibition of hyaluronidase-induced capillary permeability in albino Oryctolagus cuniculus (rabbit) assessed as area of subcutaneous spreading of trypan blue at 3.62 x 10^2 umol/kg, po pretreated 1 hr prior to mixture of hyaluronidase and trypan blue challenge measured after 30 min (reference value: 498.8 mm'2). In kind it is functional.

Data set [21] deals with Rattus norvegicus. The data set is described as follows: Toxicity in Rattus norvegicus Wistar albino (rat) assessed as mortality at 68.78 X 10^2 umol/kg, po. In kind it is organism-based. Conditions: in vivo.
In data set [22] the test system is Rattus norvegicus. Description: Toxicity in Rattus norvegicus Wistar albino (rat) assessed as lethargy at 57.92 X 10^2 umol/kg, po. It is filed as organism-based. Particulars: in vivo.
Data set [23] deals with Rattus norvegicus. The data set is described as follows: Anti-inflammatory activity in Rattus norvegicus Wistar albino (rat) assessed as inhibition of carrageenan-induced paw edema at 3.62 X 10^2 umol/kg, po administered 1 hr prior to carrageenan challenge through oral gavage measured 1 hr after carrageenan treatment by plethysmometer. It is filed as functional.
The nature of data set [24]: Toxicity in Rattus norvegicus Wistar albino (rat) assessed as mortality at 57.92 X 10^2 umol/kg, po. It is filed as organism-based. Particulars: in vivo, read-out: Activity.
Data set [25] can be described thus: Toxicity in Rattus norvegicus Wistar albino (rat) assessed as mortality at 65.16 X 10^2 umol/kg, po. It is filed as organism-based. Particulars: in vivo, read-out: Activity.
Data set [26] concerns Oryctolagus cuniculus. The data set is described as follows: Inhibition of hyaluronidase-induced capillary permeability in albino Oryctolagus cuniculus (rabbit) assessed as area of subcutaneous spreading of trypan blue at 7.24 x 10^2 umol/kg, po pretreated 1 hr prior to mixture of hyaluronidase and trypan blue challenge measured after 5 min (reference value: 288.5 mm'2). In kind it is functional.

The test system of data set [27] is Rattus norvegicus. Description: Anti-inflammatory activity in Rattus norvegicus Wistar albino (rat) assessed as inhibition of carrageenan-induced paw edema at 14.48 X 10^2 umol/kg, po administered 1 hr prior to carrageenan challenge through oral gavage measured measured 4 hr after carrageenan treatment by plethysmometer. It is filed as functional.
The subject of data set [28] is Rattus norvegicus. Description: Toxicity in Rattus norvegicus Wistar albino (rat) assessed as animal posture at 61.54 umol/kg, po. In kind it is organism-based. Conditions: in vivo.
In data set [29] the test system is Rattus norvegicus. Description: Anti-inflammatory activity in Rattus norvegicus Wistar albino (rat) assessed as inhibition of carrageenan-induced paw edema at 69.8 X 10^2 umol/kg, po administered 1 hr prior to carrageenan challenge through oral gavage measured measured 2 hr after carrageenan treatment by plethysmometer. In kind it is functional.
In data set [30] the test system is Rattus norvegicus. The data set is described as follows: Anti-inflammatory activity in Rattus norvegicus Wistar albino (rat) assessed as inhibition of carrageenan-induced paw edema at 69.8 X 10^2 umol/kg, po administered 1 hr prior to carrageenan challenge through oral gavage measured measured 4 hr after carrageenan treatment by plethysmometer. It is filed as functional.

Data set [31] deals with Rattus norvegicus. The data set is described as follows: Toxicity in Rattus norvegicus Wistar albino (rat) assessed as mortality at 139.6 umol/kg, po. It is filed as organism-based. Particulars: in vivo.
The subject of data set [32] is Rattus norvegicus. The data set is described as follows: Anti-inflammatory activity in Rattus norvegicus Wistar albino (rat) assessed as inhibition of carrageenan-induced paw edema at 69.8 X 10^2 umol/kg, po administered 1 hr prior to carrageenan challenge through oral gavage measured measured 1 hr after carrageenan treatment by plethysmometer. In kind it is functional.

Data set [33] relates to Oryctolagus cuniculus. The data set is described as follows: Inhibition of hyaluronidase-induced capillary permeability in albino Oryctolagus cuniculus (rabbit) assessed as area of subcutaneous spreading of trypan blue at 27.9 umol/kg, po pretreated 1 hr prior to mixture of hyaluronidase and trypan blue challenge measured after 5 min (reference value: 288.5 mm'2). It is filed as functional.

Data set [34] deals with Rattus norvegicus. Description: Toxicity in Rattus norvegicus Wistar albino (rat) assessed as mortality at 69.8 umol/kg, po. It is filed as organism-based. Conditions: in vivo.
The subject of data set [35] is Oryctolagus cuniculus. Description: Inhibition of hyaluronidase-induced capillary permeability in albino Oryctolagus cuniculus (rabbit) assessed as area of subcutaneous spreading of trypan blue at 27.9 umol/kg, po pretreated 1 hr prior to mixture of hyaluronidase and trypan blue challenge measured after 30 min (reference value: 498.8 mm'2). In kind it is functional.

In the case of `O=c1ccc(O)ccc1O`, the “inhibition (INH)” value with Rattus norvegicus [1] is on record as 76%; with Rattus norvegicus [2], 75%; with Rattus norvegicus [3], 79%; with Rattus norvegicus [4], 41%; with Rattus norvegicus [6] it was 72%; in the data set with Rattus norvegicus [7], 83%. The “inhibition (INH)” value in the data set with Rattus norvegicus [10] turned out to be 52%; in the data set with Rattus norvegicus [17], 45%; in the data set with Rattus norvegicus [18], 42%; in the data set on Rattus norvegicus [19], 67%; in the data set on Rattus norvegicus [23], 48%; with Rattus norvegicus [27] it was 75%. The Activity result in the data set with Rattus norvegicus [5] is “Non-toxic”; in the data set on Rattus norvegicus [8], “Non-toxic”; in the data set with Rattus norvegicus [9], “Toxic”; in the data set on Rattus norvegicus [11] it was “Non-toxic”; in the data set on Oryctolagus cuniculus [12], 212.5 mm2; with Rattus norvegicus [13] it was “Toxic”. Also, the Activity is reported as 267.5 mm2 in the data set with Oryctolagus cuniculus [15]; 196 mm2 in the data set with Oryctolagus cuniculus [20]; “Toxic” in the data set with Rattus norvegicus [21]; “Toxic” in the data set on Rattus norvegicus [22]; 256 mm2 with Oryctolagus cuniculus [26]; “Toxic” in the data set with Rattus norvegicus [28]. Besides, the LD50 in data set [14] was found to be 6440 µmol/kg. In addition, the mortality in data set [16] was 33%; in [24] it was 16%; in data set [25], 66%.
With `COc1ccc2c(c1)c(CC(=O)O)c(C)n2C(=O)c1ccc(Cl)cc1` [INDOMETHACIN], the entries for the “inhibition (INH)” value in the data set on Rattus norvegicus [29], with Rattus norvegicus [30] and with Rattus norvegicus [32] were 51%, 45% and 50%, respectively. Besides, the Activity result in the data set with Rattus norvegicus [31] is listed as “Toxic”; in the data set with Oryctolagus cuniculus [33], 227 mm2; in the data set on Rattus norvegicus [34], “Non-toxic”; in the data set on Oryctolagus cuniculus [35] it was 279.3 mm2.
